From the PolyMetriX glass transition set
± gives the standard deviation of the reports.

Row | SMILES | glass transition temperature
1 | *Sc1ccc(Sc2ccc(Sc3cccc4c3C(=O)N(N3C(=O)c5cccc(*)c5C3=O)C4=O)cc2)cc1 (repeat unit) | 266.00 °C
2 | *Oc1ccc(C2(c3ccc(Oc4ccc(C(=O)c5ccc(C(=O)c6ccc(*)cc6)cc5)cc4)cc3)c3ccccc3-c3ccccc32)cc1 (repeat unit) | 243.00 °C
3 | *C(=O)Nc1ccc(-c2ccc(NC(=O)c3ccc4c(c3)C(=O)N(c3ccc(Oc5cccc6c(N7C(=O)c8ccc(*)cc8C7=O)cccc56)cc3)C4=O)cc2)cc1 (repeat unit) | 301.00 °C
4 | *c1ccc(-n2ccc(-c3cccc(-c4ccn(*)n4)c3)n2)cc1 (repeat unit) | 75.00 °C
5 | *CC(*)(Cl)C(=O)OCCCC (repeat unit) | 42.00 °C
6 | *CC1CCCC(CN2C(=O)c3ccc(Oc4ccc5c(c4)C(=O)N(*)C5=O)cc3C2=O)C1 (repeat unit) | 199.00 °C
7 | *Oc1cc(OC(=O)c2ccc(OCC)cc2)c(OC(=O)CCCCCCCCCCCCCCC(*)=O)cc1OC(=O)c1ccc(OCC)cc1 (repeat unit) | 31.00 °C
8 | *CCOCCOc1ccc(NC(=O)c2cccc(C(=O)Nc3ccc(O*)cc3)c2)cc1 (repeat unit) | 155.00 °C
9 | *c1ccc(Oc2cc3ccccc3cc2Oc2ccc(-n3c(=O)c4cc5c(=O)n(*)c(=O)c5cc4c3=O)cc2)cc1 (repeat unit) | 316.00 °C
10 | *c1ccc(C(c2ccc(-c3nc4ccc(-c5ccc6nc(*)oc6c5)cc4o3)cc2)(C(F)(F)F)C(F)(F)F)cc1 (repeat unit) | 345.00 °C
11 | *c1cc(Br)c(-c2c(Br)cc(N3C(=O)c4ccc(-c5ccc6c(c5)C(=O)N(*)C6=O)cc4C3=O)cc2C(=O)OCCCCCCCCCCCCCCCCCC)c(C(=O)OCCCCCCCCCCCCCCCCCC)c1 (repeat unit) | 83.50 °C
12 | *Oc1ccc(OC(=O)c2cc(OCCCCCCCCCCC(F)(F)C(F)(F)C(F)(F)C(F)(F)C(F)(F)C(F)(F)C(F)(F)C(F)(F)C(F)(F)C(F)(F)F)cc(C(*)=O)c2)cc1 (repeat unit) | 137.00 °C
13 | *c1ccc(Oc2ccc(-c3cc(-c4cccc(-c5cc(*)c6ccccc6n5)c4)nc4ccccc34)cc2)cc1 (repeat unit) | 268.00 °C
14 | */C=C/c1ccc(/N=N/c2ccc(N(C)CCOC(=O)Nc3ccc(C)c(NC(=O)OCCN(C)c4ccc(/N=N/c5ccc(/C=C/C6=CC(=C(C#N)C#N)C=C(*)O6)cc5)cc4)c3)cc2)cc1 (repeat unit) | 196.00 °C
15 | *CCC(C)C(*)C (repeat unit) | -26.00 °C
16 | *C(=O)c1ccc2c(c1)C(=O)N(c1ccc(Oc3ccc(C(c4ccc(Oc5ccc(N6C(=O)c7ccc(*)cc7C6=O)cc5)cc4)(C(F)(F)F)C(F)(F)F)cc3)cc1)C2=O (repeat unit) | 248.8 ± 18 °C
17 | *c1ccc2c(c1)C(=O)N(c1cc(C(=O)Nc3cccc4c(NC(=O)c5ccc(C)c(N6C(=O)c7ccc(C(*)(C(F)(F)F)C(F)(F)F)cc7C6=O)c5)cccc34)ccc1C)C2=O (repeat unit) | 250.00 °C
18 | *CCOC(=O)c1ccc(O*)cc1 (repeat unit) | 84.00 °C
19 | *c1ccc2c(c1)C(=O)N(c1cc(OCCCCCCCC)cc(N3C(=O)c4ccc(C(*)(C(F)(F)F)C(F)(F)F)cc4C3=O)c1)C2=O (repeat unit) | 195.00 °C
20 | *CCCCCCCCn1c2ccccc2c2cc(/C=C(\C#N)C(=O)OCCCCCCOC(=O)/C(C#N)=C/c3ccc4c(c3)c3ccccc3n4*)ccc21 (repeat unit) | 96.70 °C
21 | *CCCCCCOC(=O)OCCCCCCCCCOC(=O)OCCCCCCOc1ccc(C(=O)c2ccc(O*)cc2)cc1 (repeat unit) | -6.00 °C
22 | *CCCN(Cc1ccccc1)C(=O)S* (repeat unit) | 27.00 °C
23 | *CCOc1ccc(S(=O)(=O)c2ccc(OCCOP(=O)(O*)Oc3ccccc3)cc2)cc1 (repeat unit) | 49.00 °C

Row | SMILES | glass transition temperature
24 | *NC1CCC(CCC2CCC(NC(=O)CCCCCCCCC(*)=O)CC2)CC1 (repeat unit) | 116.00 °C
25 | *C(=O)Nc1ccc(NC(=O)c2ccc3c(c2)C(=O)N(c2ccc(Oc4cccc5c(N6C(=O)c7ccc(*)cc7C6=O)cccc45)cc2)C3=O)cc1 (repeat unit) | 307.00 °C
26 | *CCCCCCCCCCNC(=O)CCCCC(=O)N* (repeat unit) | 45.00 °C
27 | */C=C/c1cc(OCCCCCCCCC)c(/C=C/c2ccc(*)cc2)cc1OCCCCCCCCC (repeat unit) | 44.00 °C
28 | *CC(=O)O* (repeat unit) | 45.00 °C
29 | *CC(*)(Cl)C(=O)OCC (repeat unit) [Poly(ethyl a-chloroacrylate) ] | 92 ± 4.8 °C
30 | *c1ccc(Oc2ccc(/C=C/c3ccc(Oc4ccc(-c5nnc(*)o5)cc4)cc3)cc2)cc1 (repeat unit) | 215.00 °C
31 | *c1cc(C)c(-c2c(C)cc(N3C(=O)c4ccc(-c5ccc6c(c5)C(=O)N(*)C6=O)cc4C3=O)cc2C)c(C)c1 (repeat unit) | 280.00 °C
32 | *CCCCCCOc1ccc(NC(=O)c2cc(C(=O)Nc3ccc(O*)cc3)cc(C(C)(C)C)c2)cc1 (repeat unit) | 166.00 °C
33 | *OC1CCC(OC(=O)CCCCC(*)=O)CC1 (repeat unit) | 77.80 °C
34 | *O[Si](*)(C)CCCCCCCCCCCOc1ccc(-c2ccc(C(=O)Oc3ccc(C(=O)OC(C)C(=O)OC(C)C(=O)OC(C)C(=O)OCC(C)CC)cc3)cc2)cc1 (repeat unit) | 15.00 °C
35 | *c1ccc(Oc2cc3ccccc3cc2Oc2ccc(N3C(=O)c4ccc(S(=O)(=O)c5ccc6c(c5)C(=O)N(*)C6=O)cc4C3=O)cc2)cc1 (repeat unit) | 275.00 °C
36 | *C([2H])([2H])C(*)([2H])Cl (repeat unit) | 85.00 °C
37 | *c1ccc([Si](c2ccccc2)(c2ccccc2)c2ccc(-c3nnc(-c4ccc(-c5nnc(*)o5)c5ccccc45)o3)cc2)cc1 (repeat unit) | 273.00 °C
38 | *c1ccc2c(c1)C(=O)N(c1ccc(Sc3ccc(Sc4ccc(N5C(=O)c6ccc(C(*)(C(F)(F)F)C(F)(F)F)cc6C5=O)cc4)cc3)cc1)C2=O (repeat unit) | 257.00 °C
39 | *CC(CSCC)O* (repeat unit) | -57.00 °C
40 | *CC(OC)C1C(=O)N(c2ccc(N(C)C)cc2)C(=O)C1* (repeat unit) | 221.00 °C
41 | *Oc1ccc(C2(c3ccc(OC(=O)CCCCC(*)=O)cc3)c3cc(N(C)C)ccc3-c3ccc([N+](=O)[O-])cc32)cc1 (repeat unit) | 150.00 °C
42 | *CC(F)(F)C(F)(F)C(F)(F)COC(=O)CCCCC(=O)O* (repeat unit) | -60.50 °C
43 | *c1ccc(Oc2ccc(C(=O)c3ccc(Oc4ccc(-c5c6c(c(*)c7ccccc57)C(=O)N(c5ccc(F)cc5)C6=O)cc4)cc3)cc2)cc1 (repeat unit) | 290.00 °C
44 | *CCCCCCCCO* (repeat unit) [Polyoxyoctamethylene ] | -70 ± 34 °C
45 | *CC(=O)Nc1ccc(Cc2ccc(NC(=O)CN3C(=O)c4ccc(C(=O)c5ccc6c(c5)C(=O)N(*)C6=O)cc4C3=O)cc2)cc1 (repeat unit) | 233.00 °C
46 | *Cc1ccc(C[n+]2ccc(-c3cc[n+](*)cc3)cc2)cc1 (repeat unit) | 95.00 °C
